This is an account of results in patent US9526766B2, “Potentiation of antibiotic treatment with a protein-lipid complex” (priority 2012, dated 2016).

In the experiment the test system is Streptococcus pneumoniae. The experiment can be described thus: Short-time kill assay on planktonic cultures. The experiment is classed as cell-based. To be noted: S. pneumoniae D39; 1 hour at 37° C.; fatty acids: concentration required to kill versus that associated with the ALAFAC-complex. As to the method: Methodology: In late logarithmic growth phase, the bacteria were harvested by centrifugation at 12,000×g for 10 minutes and resuspended in phosphate-buffered saline (PBS; […], […], […], pH 7.4). Appropriate dilutions of the bacteria were suspended in PBS and treated with indicated concentrations of ALAFAC and/or antibiotics for various times. The effect on bacterial viability was assessed by plating serial dilutions of bacterial sample on tryptic soy agar plates containing 5% sheep blood (viable counts) and determining viable colony forming units after overnight growth at 37° C.
Short-time kill assays. In late logarithmic growth phase, the bacteria were harvested by centrifugation at 12,000×g for 10 minutes and resuspended in phosphate-buffered saline (PBS; 30 mM Na2HPO4, 10 mM KH2PO4, […], pH 7.4). Appropriate concentrations of the bacteria (around 10^8 colony forming units per ml) were suspended in PBS and treated with indicated concentrations of ALAFAC and/or antibiotics for various times. The effect on bacterial viability was assessed by plating serial dilutions of bacterial sample on tryptic soy agar plates containing 5% sheep blood (viable counts) and determining viable CFUs after overnight growth at 37° C.

SMILES strings stand for the structures.

Regarding `CCCCCCCC/C=C\CCCCCCCC(=O)O` [oleic acid], the “Bactericidal activity (FIG. 1)” value is given as “considerably higher”.

Take `CCCCC/C=C\C/C=C\CCCCCCCC(=O)O` [linoleic acid]: the “Bactericidal activity (FIG. 1)” value is “considerably higher”.
